Assay results taken from patent US20130157852A1, “HERBICIDAL COMPOSITION CONTAINING FLUROXYPYR AND GLYPHOSATE” (DOW AGROSCIENCES LLC, priority 2011, published 2013).

What was measured:
Type in all cases: in vivo
[1] = test system: Convolvus arvensis (CONAR, field bindweed); experiment: Postemergence field weed control, CONAR; conditions: 59 DAA
Method: (§1) Evaluation of Postemergence Herbicidal Activity of Mixtures under Field Conditions Methodology
(§2) Trial sites were located in various countries around the world, including Brazil, United States, Hungary, Indonesia and Malaysia, in non-crop and perennial tree crop plantations. Trials were conducted using normal small plot R&D trials using standard research methodology. Trial plots were between 2 to 4 meters (m) wide by 3 to 10 m long. All treatments were applied using a randomized complete block or factorial trial design with 3-4 replications per treatment. The trial sites had naturally occurring populations of weeds. The weed spectrum included, but was not limited to, scarlet pimpernel (Anagallis arvensis L., ANGAR), tropical carpetgrass (Axonopus compressus, AXOCO), Canada thistle (Cirsium arvense (L.) Scop., CIRAR), calopo (Calopogonium mucunoides, CLOMU), Bengal dayflower (Commelina benghalensis L., COMBE), field bindweed (Convolvus arvensis, CONAR), horseweed (Conyza canadensis (L.) Cronq., ERICA), kochia (Kochia scoparia (L.) Schrad., KCHSC), common mallow (Malva neglecta Wallr., MALNE), African mile-a-minute (Mikania cordata (Burm. f.) B. L., MIKCO), slender panicgrass (Ottochloa nodosa, OTTNO), paspalum (Paspalum conjugatum Bergius, PASCO), wild buckwheat (Polygonum convolvulus L., POLCO) and stinging nettle (Urtica dioica L., URTDI).
(§3) Treatments consisted of tank mixes of commercially available formulations of fluoroxypyr-meptyl ester (Starane® 200, Starane® 250, Starane® Ultra) and glyphosate (Roundup® isopropylammonium salt, Glizmax, Gliz) applied in water. The application volume varied from location to location but was from 100 to 450 liters per hectare (L/ha). Application was made using a precision gas backpack sprayer at pressures ranging from 150 to 300 kPA pressure using 2 to 4 m booms utilizing 4 to 8 flat fan nozzles to broadcast the treatments to the weeds and to the soil.
(§4) The treated and control plots were rated blind at various intervals after application. Ratings were based on Percent (%) Visual weed control, where 0 corresponds to no control and 100 corresponds to complete control.
(§5) Colby's equation was used to determine the herbicidal effects expected from the mixtures (Colby, S. R. Calculation of the synergistic and antagonistic response of herbicide combinations. Weeds 1967 15, 20-22).
(§6) The following equation was used to calculate the expected activity of mixtures containing two active ingredients, A and B:
(§7) A=observed efficacy of active ingredient A at the same concentration as used in the mixture;
(§8) B=observed efficacy of active ingredient B at the same concentration as used in the mixture.

[2] = test system: Commelina benghalensis L. (COMBE, Bengal dayflower); experiment: Postemergence field weed control, COMBE; conditions: 28 DAA
Method: as §1
as §2, with “URTDI). […]” for “URTDI).”

[3] = test system: Paspalum conjugatum Bergius (PASCO, sour paspalum); experiment: Postemergence field weed control, PASCO; conditions: 70 DAA
Method: as §1
as §2, with “URTDI). […]” for “URTDI).”

[4] = test system: Calopogonium mucunoides (CLOMU, calopo); experiment: Postemergence field weed control, CLOMU; conditions: 70 DAA
Method: as §1
as §2, with “URTDI). […]” for “URTDI).”

[5] = test system: Anagallis arvensis L. (ANGAR, scarlet pimpernel); experiment: Postemergence field weed control, ANGAR; conditions: 14 DAA
Method: as §1
as §2, with “URTDI). […]” for “URTDI).”

[6] = test system: Polygonum convolvulus L. (POLCO, wild buckwheat); experiment: Postemergence field weed control, POLCO; conditions: 14 DAA
Method: as §1, §2, §3, §4, §5, §6, §7, §8

[7] = test system: Ottochloa nodosa (OTTNO, slender panicgrass); experiment: Postemergence field weed control, OTTNO; conditions: 70 DAA
Method: as §1
as §2, with “URTDI). […]” for “URTDI).”

[8] = test system: Conyza canadensis (L.) Cronq. (ERICA, horseweed); experiment: Postemergence field weed control, ERICA; conditions: 43 DAA
Method: as §1, §2, §3
The treated and control plots were rated blind at various intervals after application. […]

[9] = test system: Malva neglecta Wallr. (MALNE, common mallow); experiment: Postemergence field weed control, MALNE; conditions: 14 DAA
Method: as §1
as §2, with “URTDI). […]” for “URTDI).”

[10] = test system: Kochia scoparia (L.) Schrad. (KCHSC, kochia); experiment: Postemergence field weed control, KCHSC; conditions: 36 DAA
Method: as §1
as §2, with “URTDI). […]” for “URTDI).”

[11] = test system: Mikania cordata (MIKCO, African mile-a-minute); experiment: Postemergence field weed control, MIKCO; conditions: 28 DAA
Method: as §1
as §2, with “URTDI). […]” for “URTDI).”

[12] = test system: Cirsium arvense (L.) Scop. (CIRAR, Canada thistle); experiment: Postemergence field weed control, CIRAR
Method: as §1, §2, §3, §4, §5, §6, §7, §8

[13] = test system: Axonopus compressus (AXOCO, tropical carpetgrass); experiment: Postemergence field weed control, AXOCO; conditions: 70 DAA
Method: as §1
as §2, with “URTDI). […]” for “URTDI).”

[14] = test system: Urtica dioica L. (URTDI, stinging nettle); experiment: Postemergence field weed control, URTDI; conditions: 28 DAA
Method: as §1
as §2, with “URTDI). […]” for “URTDI).”

[15] = fluroxypyr-meptyl 200 grams ae/ha alone, Table 3
[16] = fluroxypyr-meptyl 400 grams ae/ha alone, Table 4
[17] = fluroxypyr-meptyl 200 grams ae/ha alone
[18] = fluroxypyr-meptyl 53 gae/ha alone
[19] = glyphosate-isopropylammonium 500 gae/ha alone
[20] = glyphosate-isopropylammonium 1000 grams ae/ha alone

For `CCCCCCC(C)OC(=O)COc1nc(F)c(Cl)c(N)c1Cl` (stereo not drawn) [Fluroxypyr-meptyl, fluoroxypyr-meptyl], the “CONAR Obs (Observed weed control)” value [1, 15] was 47%, the “CONAR Obs (Observed weed control)” value ([1]; fluroxypyr-meptyl 300 grams ae/ha alone, Table 4) was 50% and the “CONAR Obs (Observed weed control)” value [1, 16] was 48%. The “COMBE Obs (Observed weed control)” value [2, 17] was 36%, the “PASCO Obs (Observed weed control)” value [3, 18] was 0% and the “CLOMU Obs (Observed weed control)” value [4, 18] was 69%. The “ANGAR Obs (Observed weed control)” value ([5]; fluroxypyr-meptyl 400 grams ae/ha alone) was 0%, the “POLCO Obs (Observed weed control)” value [6, 15] was 52% and the “POLCO Obs (Observed weed control)” value ([6]; fluroxypyr-meptyl 400 grams ae/ha alone, Table 3) was 68%. The “POLCO Obs (Observed weed control)” value [6, 16] was 60%, the “OTTNO Obs (Observed weed control)” value [7, 18] was 0% and the “ERICA Obs (Observed weed control)” value ([8]; fluroxypyr-meptyl 140 grams ae/ha alone) was 4%. For the same compound, the “MALNE Obs (Observed weed control)” value [9, 17] was 48%, the “KCHSC Obs (Observed weed control)” value ([10]; fluroxypyr-meptyl 67 grams ae/ha alone) was 48% and the “MIKCO Obs (Observed weed control)” value ([11]; fluroxypyr-meptyl 50 grams ae/ha alone) was 42%. The “CIRAR Obs (Observed weed control)” value ([12]; fluroxypyr-meptyl 300 grams ae/ha alone, 59 DAA) was 3%, the “CIRAR Obs (Observed weed control)” value ([12]; fluroxypyr-meptyl 400 grams ae/ha alone, 14 DAA) was 7% and the “AXOCO Obs (Observed weed control)” value [13, 18] was 0%. The “URTDI Obs (Observed weed control)” value [14, 17] was 10%.
`O=C(O)CNCP(=O)(O)O` [Glyphosate-isopropylammonium, glyphosate-isopropylammonium] was tested, and the “CONAR Obs (Observed weed control)” value ([1]; glyphosate-isopropylammonium 1500 grams ae/ha alone, Table 4) was 43%, the “CONAR Obs (Observed weed control)” value ([1]; glyphosate-isopropylammonium 2000 grams ae/ha alone, Table 3) was 55% and the “CONAR Obs (Observed weed control)” value ([1]; glyphosate-isopropylammonium 2000 grams ae/ha alone, Table 4) was 55%. For the same compound, the “COMBE Obs (Observed weed control)” value ([2]; glyphosate-isopropylammonium 710 grams ae/ha alone) was 43%, the “PASCO Obs (Observed weed control)” value [3, 19] was 59% and the “CLOMU Obs (Observed weed control)” value [4, 19] was 64%. For the same compound, the “ANGAR Obs (Observed weed control)” value [5, 20] was 43%, the “POLCO Obs (Observed weed control)” value ([6]; glyphosate-isopropylammonium 1000 grams ae/ha alone, Table 3) was 25% and the “POLCO Obs (Observed weed control)” value ([6]; glyphosate-isopropylammonium 1000 grams ae/ha alone, Table 4) was 25%. The “POLCO Obs (Observed weed control)” value ([6]; glyphosate-isopropylammonium 1500 grams ae/ha alone, Table 3) was 60%, the “OTTNO Obs (Observed weed control)” value [7, 19] was 59% and the “ERICA Obs (Observed weed control)” value ([8]; glyphosate-isopropylammonium 560 grams ae/ha alone) was 18%. The “ERICA Obs (Observed weed control)” value ([8]; glyphosate-isopropylammonium 840 grams ae/ha alone) was 73%, the “MALNE Obs (Observed weed control)” value [9, 20] was 14% and the “KCHSC Obs (Observed weed control)” value ([10]; glyphosate-isopropylammonium 280 grams ae/ha alone) was 23%. The “MIKCO Obs (Observed weed control)” value ([11]; glyphosate-isopropylammonium 360 grams ae/ha alone) was 58%, the “CIRAR Obs (Observed weed control)” value ([12]; glyphosate-isopropylammonium 1000 grams ae/ha alone, 14 DAA) was 58% and the “CIRAR Obs (Observed weed control)” value ([12]; glyphosate-isopropylammonium 1000 grams ae/ha alone, 59 DAA) was 58%. The “AXOCO Obs (Observed weed control)” value [13, 19] was 59% and the “URTDI Obs (Observed weed control)” value ([14]; glyphosate-isopropylammonium 1100 grams ae/ha alone) was 24%.
